Here are results for nine compounds from patent publication US20160311788A1, “Antifouling Compounds And Use Thereof” (National University of Singapore, priority 2008, published 2016).

In brackets after ≈: the same amount, converted by molar mass. Like-named read-outs stand apart in the source and are kept apart here.

One may read the zone of inhibition as the size of the clear area around the sample on an inoculated plate.

For series [1], the system named is marine bacteria strain S1. Kind of series: disc inhibition assay, strain S1. Conditions: strain 1, 50 μg of compound per disc. Format: cell-based, Rhodovulum iodosum. The protocol:
(§1) The disc inhibition assay was used. This assay is a conventional method routinely used for screening antibacterial compounds to determine degree of susceptibility to antibacterial compounds. The diameter of the zone of inhibition is proportional to the degree of susceptibility of the bacterial strain. The compounds were tested against 13 strains of marine bacteria isolated from Singapore coastal waters.
(§2) 13 strains of marine bacteria were isolated from fouling communities located in the coastal waters around Singapore. These were characterized in earlier studies and reported in Teo et al. (U.S. patent application Ser. No. 11/265,833) and Choong et al (in prep). In addition, four reference bacterial strains were added tested: Escherichia coli (Strain K12, ATCC 15222), E. coli (strain DH5a), Pseudomonas aeruginosa (strain LMG 12228; ATCC 15692) and P. putida (strain KT2440; ATCC 47054). All the bacteria were also tested against five antibiotics: ampicillin (AMP), tetracycline (TETR), erythromycin (ERY), chloramphenicol (CHL) and streptomycin (STREP).
(§3) Disks comprising the compounds to be tested were prepared as follows. The antibacterial assay, the pure compounds were made up to a concentration of 2 mgml^−1 in DMSO. 25 μl of the stock was pipetted onto each 6 mm sterile disc (Macherey-Nagel #484000) to obtain 50 μg of compound per disc. Equivalent volume of DMSO was used inoculated for the control.
(§4) For all disk inhibition assays, bacterial cultures were grown in marine broth (Pronadisa #1217.00). Sterile swabs dipped into the cultures were used to inoculate Marine Agar plates with a bacterial lawn by smearing the culture over the surface. After inoculating the plates, discs with antibiotics, pharmaceuticals or control blanks were placed on each plate. Each concentration of antibiotic or pharmaceutical was tested with two replicates. After the disks were placed on the agar surface, plates were incubated overnight in the dark at 35° C. After incubation, plates were examined for zones of inhibition or clearing around control and treated disks. The diameter of any zone of clearing or inhibition was measured using Vernier calipers. There were two replicates per treatment, and the average was taken.

In series [2] the test system is marine bacteria strain S3. Kind of series: disc inhibition assay, strain S3. Format: cell-based, Erythrobacter aquimaris. Conditions: Qipengyuania aquimaris, S3, 24 h. The protocol:
as §1, §2, §3, §4

Series [3] has as its system marine bacteria strain S4. Kind of series: disc inhibition assay, strain S4. It counts as cell-based, Bacillus algicola. Conditions: strain 4, 50 μg of compound per disc. The protocol: as §1, §2, §3, §4
Series [4] has as its system marine bacteria strain S9. As to the kind of experiment: disc inhibition assay, strain S9. Format: cell-based, Bacillus algicola. Conditions: strain 9, 50 μg of compound per disc. The protocol: as §1, §2, §3, §4
For series [5], the system named is marine bacteria strain S10. Kind of series: disc inhibition assay, strain S10. It counts as cell-based, Halobacillus trueperi. Conditions: strain 10, 50 μg of compound per disc. The protocol: as §1, §2, §3, §4
Series [6] relates to marine bacteria strain S14. As to the kind of experiment: disc inhibition assay, strain S14. It counts as cell-based, Vibrio probioticus. Conditions: strain 14, 50 μg of compound per disc. The protocol:
as §1, §2
(§5) Disks comprising the compounds to be tested were prepared as follows. The antibacterial assay, the pure compounds were made up to a concentration of 2 mgml^−1 in DMSO. […] Equivalent volume of DMSO was used inoculated for the control.
as §4

For series [7], the system named is marine bacteria strain S16. As to the kind of experiment: disc inhibition assay, strain S16. Conditions: strain 16, 50 μg of compound per disc. Format: cell-based, Pseudoalteromonas piscicida. The protocol:
as §1, §2, §3, §4

Series [8] relates to marine bacteria strain S17. As to the kind of experiment: disc inhibition assay, strain S17. It counts as cell-based, Gordonia terrae. Conditions: strain 17, 50 μg of compound per disc. The protocol:
as §1, §2, §3, §4

For series [9], the system named is marine bacteria strain S18. Kind of series: disc inhibition assay, strain S18. It counts as cell-based, Microbacterium esteraromaticum. Conditions: strain 18, 50 μg of compound per disc. The protocol: as §1, §2, §5, §4
Series [10] deals with marine bacteria strain S27. As to the kind of experiment: disc inhibition assay, strain S27. Format: cell-based, Tenacibaculum lutimaris. Conditions: strain 27, 50 μg of compound per disc. The protocol: as §1, §2, §3, §4
In series [11] the test system is marine bacteria strain S28. As to the kind of experiment: disc inhibition assay, strain S28. It counts as cell-based, Arthrobacter protophormial. Conditions: strain 28, 50 μg of compound per disc. The protocol:
as §1, §2, §3, §4

Series [12] relates to marine bacteria strain S29. As to the kind of experiment: disc inhibition assay, strain S29. It counts as cell-based, Bacillus hwajinpoensis. Conditions: strain 29, 50 μg of compound per disc. The protocol: as §1, §2, §3, §4
In series [13] the test system is marine bacteria strain S30. As to the kind of experiment: disc inhibition assay, strain S30. Format: cell-based, Bacillus borophilicus. Conditions: strain 30, 50 μg of compound per disc. The protocol: as §1, §2, §3, §4
Series [14] has as its system Stage II nauplii of Balanus amphitrite. As to the kind of experiment: barnacle toxicity assay. It counts as in vivo. The protocol:
(§6) Pure compounds were suspended in DMSO and sonicated to obtain a stock solution of 50 mg ml^−1 in DMSO. This stock solution is stored at −20° C. in 4 ml amber screw cap vials. For the bioassays, a small volume of stock solution was added to 1 μm filtered seawater in a glass scintillation vial. This suspension was then sonicated around 10 minutes. Serial dilutions were generated to the required range of concentrations. Serial dilution of the equivalent amounts of DMSO in seawater was used as the control.
(§7) The barnacle bioassay method used follows from the method first introduced by Rittschof et al. (1992), and subsequently by other authors (Willemsen et al., 1998). This method is now standard practice for many antifouling screening of novel compounds.
Toxicity assays were modified from Rittschof et al. (1992). Stage II naupliar larvae used in tests were obtained from Balanus amphitrite adults collected from inter-tidal rock walls at Kranji mangrove, Singapore. Larvae were collected from a container of adults by attraction to a point source of light and transferred to 500 ml of fresh seawater. Next, larvae were re-concentrated with a fiber optic light and added to assays.
Duplicate assays were conducted in 2 ml glass vials (La Pha Pack® PN 11-14-0544) in 1 ml of filtered seawater for 22 to 24 hours. The assays were repeated for confirmation. There were two sets of controls, a blank control consisting of 3 tubes of seawater only, and DMSO control consisting of the equivalent dilution series with DMSO without compound). For the compounds, there were 3 tubes of each for each test concentration. The assay was initiated by addition of barnacle naupliar in 50 μl of seawater. After 22 to 24 hours of incubation at 25-27° C. solutions containing test animals were transferred to a Bogorov tray and scored as living or dead. Moribund larvae were scored as dead. Results were confirmed by repeating the assay. Data were combined and the concentration that caused 50% mortality (LD50) was calculated by probit analysis using a basic computer program (Libermann, 1983). If data were not appropriate for probit analysis, the LD50 was estimated from graphed data.

Series [15] deals with cyprids of Balanus amphitrite. As to the kind of experiment: barnacle settlement assay. It counts as in vivo. Conditions: for IC50: Amphibalanus amphitrite, 24 h, concentration that caused 50% settlement inhibition, 24 hours, cyprids; for percentage of cyprids that settled: after 24 hours incubation, averaged over two trials. The protocol:
as §6, §7
Barnacle settlement assays were based on methodology from Rittschof et al. (1992). Barnacle larvae from field-collected adults were reared on an algal mixture of 1:1 v/v of Tetraselmis suecica and Chaetoceros muelleri at 25° C., at approximately 5×10^5 cells per ml density. On this regime, larvae metamorphose to cyprids in 5 days. These cyprids were aged at 4° C. for 2-3 days, and 45-70% settlement after 24 hours (Willemsen et al., 1998).
Settlement tests were conducted in 7 ml neutral glass vials (Samco® T1 03N1) 34 mm by 23 mm diameter, with 20-40 cyprids per well. Test solutions were made up to twice the required final concentration. 0.5 ml of test solution was added into each well, and cyprids were transferred into each well in 0.5 ml of seawater. Assays were done in triplicate. As before, there were two sets of controls, a blank control consisting 3 tubes of seawater only, and DMSO control consisting of the equivalent dilution series with DMSO without compound. After 24 hours, larvae that had attached and metamorphosed were enumerated and the result expressed as percentage settlement. Larvae not attached were scored as not settled. The assays were repeated and the concentration that caused 50% settlement inhibition (ED50) was determined by pro bit analysis using a basic computer program (Lieberman, 1983), or by estimation from graphed data.

[16] abbreviates: Table 3(a), concentration that caused 50% mortality, 22 to 24 hours, Stage II nauplii.
Setting [17] is: Table 3(a), read-out: ED50 (the source's name).
Setting [18] is: Table 3(b), highest concentration tested 25 μg/ml.

`CN(C)C(=O)C(c1ccccc1)c1ccccc1` [Compound 3.1, diphenamid, reference compound]: the zone of inhibition entry in series [1], in series [3], in series [4], in series [5], in [6] and in series [7] was “−” each time. Further, the zone of inhibition entry in series [8], in [9], in series [10], in [11], in series [12] and in series [13] was “−” throughout. Besides, in series [2], the zone of inhibition at 50 µg/disc is 2 to 5 mm. For the same compound, the LD50 in series [14] (setting [16]) was > 50 µg/mL. Also, in series [15] (read-out: ED50, Table 3(a)), the IC50 stood at 15.1 µg/mL (≈ 63.1 µM).

Compound `CN1CCN(C(=O)C(c2ccccc2)c2ccccc2)CC1` [Compound 4.2, 1-(4-Methylpiperazin-1-yl)-2,2-diphenylethanone] gave an LD50 in series [14] (setting [16]) of 14.32 µg/mL. For the same compound, the “anti-settlement activity in words” value in series [15] is “eliminated anti-settlement behaviour”. The IC50 in [15] (setting [17]) is > 50 µg/mL.

Take `O=C(C(c1ccccc1)c1ccccc1)N1CCC(CCO)CC1` [Compound 9.2]: the LD50 in [14] (setting [16]) was 49.24 µg/mL. Besides, the IC50 in [15] (setting [17]) is > 50 µg/mL.

Turning to `CCCCC(CCCC)C(=O)N1CCCCC1` [Compound 12.2, 2-Butyl-1-(piperidin-1-yl)hexan-1-one], the zone of inhibition result in [1], in [6] and in series [7] was “−” in each case. Further, the zone of inhibition at 50 µg/disc is 5 to 10 mm in [2] (strain 3, 50 μg of compound per disc, read-out: zone of inhibition); 2 to 5 mm in series [3] (Guptibacillus algicola, S4, 24 h, read-out: zone of inhibition); 2 to 5 mm in [4] (Guptibacillus algicola, S9, 24 h, read-out: zone of inhibition); 2 to 5 mm in [5] (Halobacillus trueperi, S10, 24 h, read-out: zone of inhibition); 2 to 5 mm in series [8] (Gordonia terrae, S17, 24 h, read-out: zone of inhibition); 5 to 10 mm in series [9] (Microbacterium esteraromaticum, S18, 24 h, read-out: zone of inhibition). The zone of inhibition at 50 µg/disc was 2 to 5 mm in series [10] (Tenacibaculum lutimaris, S27, 24 h, read-out: zone of inhibition); 2 to 5 mm in series [11] (Arthrobacter, S28, 24 h, read-out: zone of inhibition); 2 to 5 mm in series [12] (Guptibacillus hwajinpoensis, S29, 24 h, read-out: zone of inhibition); 2 to 5 mm in series [13] (Bacillus, S30, 24 h, read-out: zone of inhibition). In addition, the “percentage of cyprids that settled” value in [15] (0.2 ug/ml) is given as 8.94%; in series [15] (1 ug/ml) it was 8.42%; in series [15] (5 ug/ml), 8.37%; in [15] (25 ug/ml), 0%.

Take `CCCCCCC(CCCC)C(=O)N1CCCCC1` (stereo not shown) [Compound 12.8]: in [14] (setting [18]), the LD50 was found to be 3.35 µg/mL. Also, the “percentage of cyprids that settled” value in [15] (0.2 ug/ml) was found to be 25.82%; in series [15] (1 ug/ml), 8.62%; in series [15] (5 ug/ml) it was 0%; in [15] (25 ug/ml), 0%. Besides, the IC50 in series [15] (setting [17]) is < 10 µg/mL.

Regarding `CCCCCCCCCCC(CCCC)C(=O)N1CCCCC1` (stereo not shown) [Compound 12.9], the LD50 in [14] (setting [18]) was >25 µg/mL. Also, the “percentage of cyprids that settled” value was found to be 28.14% in [15] (0.2 ug/ml), 10.56% in series [15] (1 ug/ml), 1.94% in series [15] (5 ug/ml) and 1.32% in [15] (25 ug/ml).

`CCCCCCCCCCC(CCCCCCCC)C(=O)N1CCCCC1` (stereo not shown) [Compound 12.10]: the LD50 in series [14] (setting [18]) was >25 µg/mL. The “percentage of cyprids that settled” value in series [15] (0.2 ug/ml) was determined as 12.5%; in series [15] (1 ug/ml), 13.00%; in series [15] (5 ug/ml) it was 11.40%; in [15] (25 ug/ml), 17.88%.

For the compound `CCCCCCC(C(=O)N1CCCCC1)c1ccccc1` (stereo not shown) [Compound 12.11], in series [14] (setting [18]), the LD50 was >25 µg/mL.

The compound `CCCCCCC(CCCCCC)C(=O)N1CCCCC1` [Compound 12.12] gave an LD50 in series [14] (setting [18]) of 0.2 to 1 µg/mL.
